Experimental data published in ChEMBL document CHEMBL1149325 (J Med Chem, 2004).
One block for each compound: values may come before it.

Key:
P388 [1] = test system: P388
Description: Maximum tolerated dose was determined against P338 tumor in mice after intraperitoneal administration daily for 7 days

Mus musculus [2] = experiment: Area under curve was determined for compound after intraperitoneal administration in mice at 25 uM/kg; assay type: functional, organism-based
[3] = Cmax in mice at 24 umol/kg i.p. administration; assay type: ADME, organism-based; set-up: dose 24 umol/kg, route intraperitoneal; conditions: mouse, in vivo, ip
Mus musculus [4] = experiment: Half life after intraperitoneal administration in mice at 25 uM/kg; assay type: functional, organism-based
Mus musculus [5] = experiment: Mean-residence time was determined for compound after intraperitoneal administration in mice at 25 uM/kg; assay type: functional, organism-based
P388 [6] = test system: P388; remark: listed apart in the source
Description: Increase in life span of the treated mice to those of control was determined

Mus musculus [7] = experiment: Tmax in mice at 25 uM/kg i.p. administration; assay type: functional, organism-based
Mus musculus [8] = species: Mus musculus
Description: Percentage of compound bound to serum protein was determined

Mus musculus [9] = species: Mus musculus; remark: listed apart in the source
Description: Maximum tolerated dose in A2780 tumor in mice after intraperitoneal administration daily for 8 days

Mus musculus [10] = species: Mus musculus; experiment: Log cell kill for A2780 tumor in mice; assay type: functional
Mus musculus [11] = experiment: Area under curve was determined for compound after intraperitoneal administration in mice at 26 uM/kg; assay type: functional, organism-based
[12] = Cmax in mice at 26 umol/kg i.p. administration; assay type: ADME, organism-based; set-up: dose 26 umol/kg, route intraperitoneal; conditions: mouse, in vivo, ip
Mus musculus [13] = experiment: Mean-residence time was determined for compound after intraperitoneal administration in mice at 26 uM/kg; assay type: functional, organism-based
Mus musculus [14] = experiment: Half life after intraperitoneal administration in mice at 26 uM/kg; assay type: functional, organism-based
[15] = molecular target: Cyclin-dependent kinase 2/cyclin E (Homo sapiens, UniProt P24941)
[16] = Cmax in mice at 18 umol/kg i.p. administration; assay type: ADME, organism-based; set-up: dose 18 umol/kg, route intraperitoneal; conditions: mouse, in vivo, ip
Mus musculus [17] = experiment: Mean-residence time was determined for compound after intraperitoneal administration in mice at 18 uM/kg; assay type: functional, organism-based
Mus musculus [18] = experiment: Area under curve was determined for compound after intraperitoneal administration in mice at 18 uM/kg; assay type: functional, organism-based
Mus musculus [19] = experiment: Half life after intraperitoneal administration in mice at 18 uM/kg; assay type: functional, organism-based
Mus musculus [20] = experiment: Tmax in mice at 18 uM/kg i.p. administration; assay type: functional, organism-based
Mus musculus [21] = experiment: Microsomal stability was determined in mouse liver microsomes after intraperitoneal administration in mice at 18 uM/kg; assay type: functional
Mus musculus [22] = experiment: Mean-residence time was determined for compound intravenous administration in mice at 23 uM/kg; assay type: functional, organism-based
Mus musculus [23] = experiment: Half life after intravenous administration in mice at 23 uM/kg; assay type: functional, organism-based
in vivo = conditions: mouse, iv, 23 umol/kg
Description: Cmax in mice at 23 umol/kg i.v. administration

Mus musculus [24] = experiment: Tmax in mice at 23 uM/kg i.v. administration; assay type: functional, organism-based
Mus musculus [25] = species: Mus musculus; experiment: Log cell kill for A2780 tumor in mice; […]; assay type: functional
Mus musculus [26] = experiment: Microsomal stability was determined in mouse liver microsomes after intravenous administration in mice at 23 uM/kg; assay type: functional
[27] = Cmax in mice at 25 umol/kg i.p. administration; assay type: ADME, organism-based; set-up: dose 25 umol/kg, route intraperitoneal; conditions: mouse, in vivo, ip

SMILES: CC(C)(C)c1cnc(CSc2cnc(NC(=O)C3CCN(CCO)CC3)s2)o1
MTD (P388 [1]): 22.5 mg/kg | AUC (Mus musculus [2]): 764 ng·h/mL | Cmax [3]: 1100 nM | T1/2 (Mus musculus [4]): 1.9 h | MRT (Mus musculus [5]): 2.4 h | Survival (P388 [6]): 140% | Tmax (Mus musculus [7]): 0.5 h | Binding (Mus musculus [8]): 75%

SMILES: CC(C)(C)c1cnc(CSc2cnc(NC(=O)C3CCCNC3)s2)o1 (configuration not stated)
MTD (P388 [1]): 20 mg/kg | MTD (Mus musculus [9]): 22 mg/kg | LCK (Mus musculus [10]): 1.6 | AUC (Mus musculus [11]): 4600 ng·h/mL | Cmax [12]: 3500 nM | MRT (Mus musculus [13]): 3.5 h | Survival (P388 [6]): 152% | T1/2 (Mus musculus [14]): 2.2 h | Binding (Mus musculus [8]): 82%

IC50 [15]: 300 µM
SMILES: CC(C)(C)c1cnc(CSc2cnc(NC(=O)C3CCCCC3)s2)o1

SMILES: CC(C)(C)c1cnc(CSc2cnc(NC(=O)C3CCN(S(C)(=O)=O)CC3)s2)o1
Binding (Mus musculus [8]): 84%

SMILES: CC(C)(C)c1cnc(CSc2cnc(NC(=O)Cc3ccc(CNC(CO)CO)cc3)s2)o1
MTD (P388 [1]): 32 mg/kg | MTD (Mus musculus [9]): 26 mg/kg | Cmax [16]: 800 nM | LCK (Mus musculus [10]): 3.3 | MRT (Mus musculus [17]): 2.9 h | AUC (Mus musculus [18]): 1320 ng·h/mL | T1/2 (Mus musculus [19]): 1.8 h | Tmax (Mus musculus [20]): 1 h | Survival (P388 [6]): 140% | Binding (Mus musculus [8]): 79% | Activity (Mus musculus [21]): 0.22 nM min-1 (mg of protein)-1

IC50 [15]: 3 µM
SMILES: CC(C)(C)c1cnc(CSc2cnc(NC(=O)Cc3ccccc3)s2)o1

SMILES: CC(C)(C)c1cnc(CSc2cnc(NC(=O)[C@H]3CC[C@@H](N)CC3)s2)o1
MTD (P388 [1]): 8 mg/kg | MTD (Mus musculus [9]): 8 mg/kg | MRT (Mus musculus [22]): 2.2 h | T1/2 (Mus musculus [23]): 2.2 h | Cmax (in vivo): 13600 nM | AUC (Mus musculus [18]): 4660 ng·h/mL | Tmax (Mus musculus [24]): 6 min | LCK (Mus musculus [25]): 1.7 | Activity (Mus musculus [26]): 0.07 nM min-1 (mg of protein)-1 | Survival (P388 [6]): 179% | Binding (Mus musculus [8]): 68%

Cmax [27]: 1100 nM
SMILES: CN1CCC(C(=O)Nc2ncc(SCc3ncc(C(C)(C)C)o3)s2)CC1
AUC (Mus musculus [2]): 473 ng·h/mL | T1/2 (Mus musculus [4]): 0.7 h | MRT (Mus musculus [5]): 1.1 h | Tmax (Mus musculus [7]): 0.5 h | Binding (Mus musculus [8]): 75%

IC50 [15]: 5 µM
SMILES: CC(=O)Nc1ncc(SCc2ncc(C(C)(C)C)o2)s1
Binding (Mus musculus [8]): 83%

SMILES: CC(C)(C)c1cnc(CSc2cnc(NC(=O)[C@H]3CC[C@H](N)CC3)s2)o1
Binding (Mus musculus [8]): 86%

SMILES: CC(C)(C)OC(=O)N1CCC(C(=O)Nc2ncc(SCc3ncc(C(C)(C)C)o3)s2)CC1
Binding (Mus musculus [8]): 99%
